One data set deals with T1, mouse TfR (Mus musculus, UniProt Q62351).
T1 construct: bEnd.3 cells, mouse cells positive for TfR; host or cells: bEnd.3 mouse cerebral endothelial cells
Description: Flow cytometry binding assay on bEnd.3 cells (TfR-positive). As to conditions: bEnd.3 (TfR-positive) cells, n=3. The protocol:
In order to determine the binding affinity (equilibrium dissociation constant KD) of the aptamers. Binding assays were conducted to measure the binding to native EpCAM protein expressed on the cell surface. The aptamers were incubated with the cells at concentrations ranging from 0 nM to 400 nM. These were subsequently analysed by flow cytometry. Aptamers were thawed from storage (-20° C.) prior to use. These were then diluted via serial dilutions with phosphate buffered saline (PBS) in order to achieve the desired concentrations. PBS was supplemented with a MgCl2 concentration appropriate for the aptamer (1 mM for anti-TfR aptamers; 5 mM for conjugate aptamers). […] Concurrently, subcultured cells were incubated in blocking buffer (PBS with 10% FCS, 1 mg/mL BSA, 0.1 mg/mL tRNA) for 30 minutes. Following centrifugation, blocking buffer was removed and cells were resuspended in binding buffer (PBS with 10% FCS, 1 mg/mL BSA, 0.1 mg/mL tRNA). Cells (50 μL) were then incubated with the aptamers (50 μL) for 30 minutes at 37° C. at a range of concentrations (0 nM, 20 nM, 40 nM, 60 nM, 80 nM, 100 nM, 200 nM, 400 nM). Following this, cells were washed in 100 μL PBS three times before final resuspension for flow cytometry. Aptamers were incubated with the chosen cell lines (bEnd.3 cells, mouse cells positive for TfR; HEY cells, human ovarian cancer cell line positive for EpCAM; and MOLT4 human cells negative for both TfR and EpCAM) at a range of concentrations. Aptamer-bound cells were analysed using a FACS Canto II flow cytometer (Becton Dickinson), counting 10,000 events for each sample, in order to determine the binding affinity of the aptamers. […] The value for the auto fluorescent 0 nM concentration was subtracted from the other figures to account for background fluorescence (Li N et al (2009) Journal of Proteome Research 8(5):2438-48). […] The binding affinities of aptamers TfR1, TfR2, […] determined semi-quantitatively via flow cytometry, using bEnd.3 mouse cerebral endothelial cells as a Tf R-positive cell line and MOLT4 acute lymphoblastic leukaemia cells-which express the human TfR, but not the mouse TfR (Sutherland R et al (1981) PNAS 78(7):4515-9)-as a negative control. Three independent binding assays were performed for each aptamer against each cell line. […] Three independent binding assays were performed for these aptamer against all three cell lines (bEnd.3, HEY and MOLT4).
A general note: In flow cytometry, cells or beads pass a laser one at a time.

The target in data set [1] is T2, native EpCAM protein expressed on the cell surface (HEY cells) (Homo sapiens, UniProt P16422).
T2 construct: host or cells: HEY ovarian cancer cells
T2 sequence (P16422 24-314): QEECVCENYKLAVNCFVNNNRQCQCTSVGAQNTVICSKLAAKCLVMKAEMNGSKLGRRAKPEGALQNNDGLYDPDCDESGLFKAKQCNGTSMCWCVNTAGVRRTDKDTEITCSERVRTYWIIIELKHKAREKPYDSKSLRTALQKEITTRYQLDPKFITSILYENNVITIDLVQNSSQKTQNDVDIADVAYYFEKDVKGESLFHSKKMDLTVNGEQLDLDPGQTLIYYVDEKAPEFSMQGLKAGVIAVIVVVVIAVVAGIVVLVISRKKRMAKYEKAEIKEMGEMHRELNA
Briefly: Flow cytometry binding assay on HEY cells (EpCAM-positive). As to conditions: for Kd: HEY (EpCAM-positive) cells, flow cytometry, n=3. The protocol: In order to determine the binding affinity (equilibrium dissociation constant KD) of the aptamers. Binding assays were conducted to measure the binding to native EpCAM protein expressed on the cell surface. The aptamers were incubated with the cells at concentrations ranging from 0 nM to 400 nM. These were subsequently analysed by flow cytometry. Aptamers were thawed from storage (−20° C.) prior to use. These were then diluted via serial dilutions with phosphate buffered saline (PBS) in order to achieve the desired concentrations. PBS was supplemented with a MgCl2 concentration appropriate for the aptamer (1 mM for anti-TfR aptamers; 5 mM for conjugate aptamers). Aptamers were then folded into their 3D structures using a thermocycler (85° C. for 5 minutes, slow cooling to 22° C. over 10 minutes and 37° C. for 15 minutes).
Concurrently, subcultured cells were incubated in blocking buffer (PBS with 10% FCS, 1 mg/mL BSA, 0.1 mg/mL tRNA) for 30 minutes. Following centrifugation, blocking buffer was removed and cells were resuspended in binding buffer (PBS with 10% FCS, 1 mg/mL BSA, 0.1 mg/mL tRNA). Cells (50 μL) were then incubated with the aptamers (50 μL) for 30 minutes at 37° C. at a range of concentrations (0 nM, 20 nM, 40 nM, 60 nM, 80 nM, 100 nM, 200 nM, 400 nM). Following this, cells were washed in 100 μL PBS three times before final resuspension for flow cytometry.
Aptamers were incubated with the chosen cell lines (bEnd.3 cells, mouse cells positive for TfR; HEY cells, human ovarian cancer cell line positive for EpCAM; and MOLT4 human cells negative for both TfR and EpCAM) at a range of concentrations. Aptamer-bound cells were analysed using a FACS Canto II flow cytometer (Becton Dickinson), counting 10,000 events for each sample, in order to determine the binding affinity of the aptamers. […] The value for the auto fluorescent 0 nM concentration was subtracted from the other figures to account for background fluorescence (Li N et al (2009) Journal of Proteome Research 8(5):2438-48). The resultant values were then used to determine the dissociation constant (KD) via the Graph Pad Prism 3 software. […]
The binding affinities of aptamers Bi1, Bi2 and Bi3 were determined semi-quantitatively via flow cytometry, using bEnd.3 cells to assess reactivity with TfR, HEY cells to determine EpCAM specificity and the MOLT4 cell line as a negative control. Three independent binding assays were performed for these aptamer against all three cell lines (bEnd.3, HEY and MOLT4). […]

“And” between values parts separate entries of the source, which are not always exact repeats. Equal entries are not always repeated. [invdT] = inverted (3'-3') thymidine; {TYE665} = TYE665 fluorescent dye

T1 sequence (Q62351 whole entry): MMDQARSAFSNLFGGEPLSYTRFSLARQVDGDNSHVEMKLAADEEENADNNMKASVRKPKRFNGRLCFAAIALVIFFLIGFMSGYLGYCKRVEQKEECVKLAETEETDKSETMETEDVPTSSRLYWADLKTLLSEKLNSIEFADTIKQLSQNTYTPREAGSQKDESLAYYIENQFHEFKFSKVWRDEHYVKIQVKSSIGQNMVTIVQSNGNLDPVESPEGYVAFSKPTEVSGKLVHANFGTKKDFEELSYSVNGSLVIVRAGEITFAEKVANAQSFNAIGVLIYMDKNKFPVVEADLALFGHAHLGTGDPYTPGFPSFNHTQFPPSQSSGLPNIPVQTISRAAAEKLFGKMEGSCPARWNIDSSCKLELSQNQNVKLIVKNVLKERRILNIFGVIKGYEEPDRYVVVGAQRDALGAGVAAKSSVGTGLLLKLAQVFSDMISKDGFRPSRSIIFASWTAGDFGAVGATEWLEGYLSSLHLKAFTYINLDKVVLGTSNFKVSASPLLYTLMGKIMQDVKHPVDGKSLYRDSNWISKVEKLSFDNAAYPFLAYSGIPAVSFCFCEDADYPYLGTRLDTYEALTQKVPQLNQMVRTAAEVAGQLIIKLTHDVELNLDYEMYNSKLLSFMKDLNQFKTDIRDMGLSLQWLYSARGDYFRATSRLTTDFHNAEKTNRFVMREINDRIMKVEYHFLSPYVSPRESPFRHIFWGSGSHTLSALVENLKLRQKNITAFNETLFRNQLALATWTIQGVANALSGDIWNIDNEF

One may read the Kd as a measure of binding affinity in units of concentration. Read a high Kd as weaker binding. Turning to “Bi1: aptamer conjugate based on TfR1 and scrambled EpCAM binding loop, negative control, SEQ ID NO:8 (GCGCGTGCACGCGCTAACGGATTCCTTTTCCGN; listed as DNA, further chemistry not given here)”, the Kd with mouse TfR was determined as 1690 ± 1840 nM; in data set [1], 921 ± 270 nM.

In the case of “5′-GCGCGGGCCCGCGCTAACGGAGGTTGCGTCCGT-3′ (GCGCGGGCCCGCGCTAACGGAGGTTGCGTCCGN; DNA sequence of aptamer conjugate Bi2; (33)..(33) n is t or 3′ inverted deoxythymidine (dT))”, the Kd in the data set with mouse TfR was 306 nM and 305 nM; in data set [1] it was 205 ± 73.3 nM.

For the substance “5′-GCGCGGTACCGCGCTAACGGAGGTTGCGTCCGT-3′ (GCGCGGTACCGCGCTAACGGAGGTTGCGTCCGN; listed as DNA, chemistry not given here) [Bi3]”, the Kd with mouse TfR was determined as 342 ± 78.3 nM; in data set [1] it was 219 ± 49.2 nM.

Take “TfR3: version of TfR1 with scrambled binding loop sequence, SEQ ID NO:6 (DNA GCGTGGTACCACGC; DNA, 5' {TYE665}, 3' [invdT], backbone not given here)”: the affinity in the data set with mouse TfR, expressed as Kd, was 366 nM. Moreover, the “Binding to HEY cell line (specific or non-specific)” value in data set [1] (flow cytometry binding curve) is recorded as “clear non-specific binding”.

The values are drawn from US10577610B2, “EpCAM aptamers and conjugates thereof” (Deakin University, priority 2015, dated 2020).
